Results from ChEMBL document CHEMBL1201862, “PubChem BioAssay data set” (2004).
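96-well plates; 48 h exposure; 5 concentrations. Endpoints by linear interpolation between flanking doses. Not reached: highest tested concentration assigned. Here, GI50 denotes the concentration required for 50% inhibition of growth.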 Active and inactive are the calls of the source. No stated cut-off is given here; in the data, active = GI50 up to about 1.1 µM and inactive = higher.

Tests used:
Assay in all cases: inhibition of tumour cell growth, NCI panel, 48 h
CAKI-1 = tested on: CAKI-1
EKVX = tested on: EKVX
HCT-116 = tested on: HCT-116
HCT-15 = tested on: HCT-15
HOP-62 = tested on: HOP-62
LOX IMVI = tested on: LOX IMVI
Malme-3M = tested on: Malme-3M
NCI-H460 = tested on: NCI-H460
OVCAR-3 = tested on: OVCAR-3
OVCAR-5 = tested on: OVCAR-5
OVCAR-8 = tested on: OVCAR-8
PC-3 = tested on: PC-3
SF-268 = tested on: SF-268
SK-MEL-2 = tested on: SK-MEL-2
SK-MEL-5 = tested on: SK-MEL-5
SNB-75 = tested on: SNB-75
UACC-62 = tested on: UACC-62
CCRF-CEM = tested on: CCRF-CEM
SF-539 = tested on: SF-539
HOP-92 = tested on: HOP-92

`O=C1/C(=C/c2ccc(Br)s2)NC(=S)N1CN1CCOCC1` was tested, and the GI50 (CAKI-1) was 25.2 µM (inactive), the GI50 (EKVX) was 8.38 µM (inactive) and the GI50 (HCT-116) was 31.8 µM (inactive). For the same compound, the GI50 (HCT-15) was 30.2 µM, the GI50 (HOP-62) was > 100 µM (inactive) and the GI50 (LOX IMVI) was 24.5 µM (inactive). For the same compound, the GI50 (Malme-3M) was > 100 µM (inactive), the GI50 (NCI-H460) was 49.8 µM (inactive) and the GI50 (OVCAR-3) was 59.3 µM (inactive). For the same compound, the GI50 (OVCAR-5) was 61.1 µM (inactive), the GI50 (OVCAR-8) was 61.5 µM (inactive) and the GI50 (PC-3) was 78.9 µM (inactive). The GI50 (SF-268) was 87.7 µM (inactive), the GI50 (SK-MEL-2) was 71.9 µM (inactive) and the GI50 (SK-MEL-5) was 50 µM (inactive). For the same compound, the GI50 (SNB-75) was 85.5 µM (inactive) and the GI50 (UACC-62) was 20.2 µM (inactive).

For `O=[N+]([O-])c1ccc2nc(O)c(/C=C(\O)c3ccccc3)nc2c1`, the GI50 (CAKI-1) was 21.4 µM (inactive), the GI50 (CCRF-CEM) was > 100 µM (inactive) and the GI50 (EKVX) was 49.4 µM (inactive). The GI50 (HCT-116) was 13.7 µM (inactive), the GI50 (HCT-15) was 11.5 µM and the GI50 (HOP-62) was 5.52 µM (inactive). For the same compound, the GI50 (Malme-3M) was 55.8 µM (inactive), the GI50 (NCI-H460) was 3.83 µM (inactive) and the GI50 (OVCAR-3) was 27.9 µM (inactive). For the same compound, the GI50 (OVCAR-5) was > 100 µM (inactive), the GI50 (OVCAR-8) was 11.5 µM (inactive) and the GI50 (PC-3) was 28.8 µM (inactive). For the same compound, the GI50 (SF-268) was 13.9 µM (inactive), the GI50 (SF-539) was 15.3 µM (inactive) and the GI50 (SK-MEL-2) was > 100 µM (inactive). For the same compound, the GI50 (SK-MEL-5) was 98.2 µM (inactive), the GI50 (SNB-75) was 16 µM (inactive) and the GI50 (UACC-62) was 24.4 µM (inactive).

In the case of `S=C(S)NCC1CCC(CNC(=S)S)CC1` (stereo unspecified), the GI50 (CAKI-1) is reported as 16.9 µM (inactive), the GI50 (CCRF-CEM) is reported as 10.7 µM (inactive) and the GI50 (EKVX) is reported as 62.1 µM (inactive). For the same compound, the GI50 (HCT-116) was 19.7 µM (inactive), the GI50 (HCT-15) was 23.6 µM and the GI50 (HOP-62) was 20.7 µM (inactive). For the same compound, the GI50 (LOX IMVI) was 18.8 µM (inactive), the GI50 (Malme-3M) was 22.8 µM (inactive) and the GI50 (NCI-H460) was 70.5 µM (inactive). For the same compound, the GI50 (OVCAR-3) was 16.5 µM (inactive), the GI50 (OVCAR-5) was > 100 µM (inactive) and the GI50 (OVCAR-8) was 20.9 µM (inactive). For the same compound, the GI50 (PC-3) was 17.8 µM (inactive), the GI50 (SF-268) was 39.2 µM (inactive) and the GI50 (SF-539) was 38.5 µM (inactive). For the same compound, the GI50 (SK-MEL-2) was 23.3 µM (inactive), the GI50 (SK-MEL-5) was 87.9 µM (inactive) and the GI50 (SNB-75) was 34.9 µM (inactive). For the same compound, the GI50 (UACC-62) was 34.4 µM (inactive).

In the case of `OC(c1ccc(Cl)cc1)(c1ccc(Cl)cc1)c1cncnc1`, the GI50 (CAKI-1) is reported as 17.6 µM (inactive), the GI50 (CCRF-CEM) is reported as 15.3 µM (inactive) and the GI50 (HCT-116) is reported as 14.3 µM (inactive). For the same compound, the GI50 (HCT-15) was 19 µM, the GI50 (HOP-62) was 18.6 µM (inactive) and the GI50 (HOP-92) was 17.4 µM (inactive). For the same compound, the GI50 (LOX IMVI) was 23.2 µM (inactive), the GI50 (Malme-3M) was 33.7 µM (inactive) and the GI50 (NCI-H460) was 18.2 µM (inactive). The GI50 (OVCAR-3) was 17.1 µM (inactive), the GI50 (OVCAR-5) was 18.9 µM (inactive) and the GI50 (OVCAR-8) was 21.4 µM (inactive). The GI50 (PC-3) was 12.9 µM (inactive), the GI50 (SK-MEL-2) was 16.6 µM (inactive) and the GI50 (SK-MEL-5) was 13.6 µM (inactive). For the same compound, the GI50 (SNB-75) was 21.2 µM (inactive) and the GI50 (UACC-62) was 14.8 µM (inactive).
